These results are taken from patent US20060020035A1, “Bone marrow protection with N-acetyl-L-cysteine” (Oregon Health & Science University, priority 2004, published 2006).

Data set [1] relates to total white cells, granulocytes, and platelets. The experiment in a line: Example 2: L-NAC and D-NAC on rat blood counts after buthionine sulfoximine and tri-drug chemotherapy. The class given is in vivo. The following applies: pretreatment; rats pretreated with buthionine sulfoximine, tri-drug chemotherapy. An excerpt:
In the experiment shown in FIG. 4, rats were pretreated With buthionine sulfoximine to enhance the bone marrow toxicity of chemotherapy, and then treated with the tri-drug chemotherapy regimen with or without L-NAC or D-NAC.

The nature of the next data set: in vivo. The following applies: Long Evans, rat, maximum tolerated dose. The method, then: (§1) Osmotic Blood-Brain Barrier Disruption. Anesthesia was induced with 5% isoflurane and maintained with propofol (650 μg/kg/min). Mannitol (25%, 37° C.) was infused cephalad into the left internal carotid artery via a left external carotid catheter (Remsen et al., Anesthesia Analgesia 88:559-67, 1999).
(§2) Aortic Infusion Technique. The left internal carotid artery was temporarily occluded, and agents were administered retrograde to the descending aorta through a left external carotid catheter (Neuwelt et al., Cancer Res 61:7868-74, 2001).
N-Acetylcysteine Toxicity. N-Acetyl-L-cysteine (N-acetylcysteine, Mucomyst; Roxane Laboratories, Inc., Columbus, Ohio) was given by aortic infusion 30 min (n=7) or 60 min (n=10) before blood brain barrier disruption in normal Long Evans rats. Doses ranged from 400 to 1500 mg/kg in 3 ml infused at 0.6 ml/min. Rats were sacrificed 6 days after treatment or at signs of acute neurotoxicity (head tilt, circling, moribund).

Data set [2] can be described thus: N-Acetylcysteine clearance from rat blood (serum concentration, colorimetric kit and HPLC). The class given is in vivo, Long Evans rats. The protocol: N-Acetylcysteine Clearance. […] Blood samples (0.5 ml) were collected 5, 15, 30, 60, and 90 min after thiol administration, and serum was evaluated for N-acetylcysteine concentration. Serum N-acetylcysteine concentrations were measured using the Bioxytech GSH-400 colorimetric kit (Oxis Research, Portland, Oreg.). The colorimetric assay was validated by high-pressure liquid chromatography (HPLC) analysis of serum thiols for n=2 rats from groups B and D. Deproteinated serum samples were diluted in 160 mM KH2PO4, pH 3. Thiols were measured by electrochemical detection using a Waters radial compression module with 10-μm C18 column (Waters, Milford, Mass.), an ESA 5010 analytical cell, and an ESA 5100A coulochem detector (ESA Inc., Chelmsford, Mass.). Area under the curve was compared with known concentrations prepared in control sera.

Data set [3] deals with total white cells, granulocytes, and platelets. The experiment in a line: Major tumor study: blood counts after tri-drug chemotherapy with or without chemoprotection. The class given is in vivo, nude rats. The protocol:
as §1, §2

In a further data set the test system is platelets. The following applies: 8 g/m^2 intravenous 2, 4, or 8 h after high-dose carboplatin; blood counts 6 days after chemotherapy.
For data set [4] the following is noted: previously reported (Neuwelt et al. 1998); cited from earlier work.
A further data set deals with bone marrow. Conditions: administered immediately after chemotherapy, alone or in combination with N-acetylcysteine (Neuwelt et al. 2001); cited from earlier work.
Where [5] appears, read: 1000 mg/kg by aortic infusion, 60 min before chemotherapy.

Structures are written as SMILES. Like-named read-outs stand apart in the source and are kept apart here.

Take `CC(=O)N[C@H](CS)C(=O)O` [D-NAC, N-acetyl-D-cysteine]: the “bone marrow chemoprotective activity (total white cells, granulocytes, and platelets)” value in data set [1] is given as “not bone marrow protective”.
`CC(=O)N[C@@H](CS)C(=O)O` [N-acetylcysteine, N-acetyl-L-cysteine] showed an MTD at 6 days in “in vivo” (aortic infusion 30 min before blood-brain barrier disruption) of 500 mg/kg. The compound also registered an MTD at 6 days in “in vivo” (aortic infusion 60 min before blood-brain barrier disruption) of 1000 mg/kg. The compound also showed a maximum blood concentration in data set [2] (1000 mg/kg intra-arterially, 5 min after infusion) of 11.2 ± 1.3 mM. The “blood concentration at the time of chemotherapy delivery” value in data set [2] (1000 mg/kg intra-arterially, 60 min after infusion) turned out to be 200 ± 100 µM. For the same compound, the half-life in data set [2] (Long Evans, rat, serum, other: intravenous or aortic infusion (all groups), all groups: 140-1200 mg/kg, intravenous or aortic infusion) fell in the range of 9 to 11 min. For the same compound, in data set [3] (setting [5]), the protection for granulocytes entry is on record as “significantly protective” and the “protection for white cells” value is on record as “significantly protective”. In addition, the platelet chemoprotection entry in data set [3] (N-acetylcysteine alone, 1000 mg/kg by aortic infusion, 60 min before chemotherapy) is “not significant”. Further, in data set [1], the “bone marrow chemoprotective activity (total white cells, granulocytes, and platelets)” value is reported as “significantly reduced chemotherapy toxicity”.
Take `O=S([O-])([O-])=S.[Na+].[Na+]` [sodium thiosulfate]: the “protection against chemotherapy-induced bone marrow suppression” value in data set [3] (sodium thiosulfate 8 g/m^2 4 and 8 h after chemotherapy, with or without N-acetylcysteine 1000 mg/kg 60 min before) was “minimal protective effect”. Also, the platelet chemoprotection result with platelets is recorded as “delaying sodium thiosulfate administration improved platelet chemoprotection”. In addition, in data set [4], the half-life is 15 min. Also, in the data set on bone marrow, the “bone marrow chemoprotective activity” value is reported as “minimal bone marrow chemoprotective activity”.
